Assay [1] deals with T1, Bone morphogenetic protein 1 (Homo sapiens, UniProt P13497).
T1 sequence (P13497 whole entry): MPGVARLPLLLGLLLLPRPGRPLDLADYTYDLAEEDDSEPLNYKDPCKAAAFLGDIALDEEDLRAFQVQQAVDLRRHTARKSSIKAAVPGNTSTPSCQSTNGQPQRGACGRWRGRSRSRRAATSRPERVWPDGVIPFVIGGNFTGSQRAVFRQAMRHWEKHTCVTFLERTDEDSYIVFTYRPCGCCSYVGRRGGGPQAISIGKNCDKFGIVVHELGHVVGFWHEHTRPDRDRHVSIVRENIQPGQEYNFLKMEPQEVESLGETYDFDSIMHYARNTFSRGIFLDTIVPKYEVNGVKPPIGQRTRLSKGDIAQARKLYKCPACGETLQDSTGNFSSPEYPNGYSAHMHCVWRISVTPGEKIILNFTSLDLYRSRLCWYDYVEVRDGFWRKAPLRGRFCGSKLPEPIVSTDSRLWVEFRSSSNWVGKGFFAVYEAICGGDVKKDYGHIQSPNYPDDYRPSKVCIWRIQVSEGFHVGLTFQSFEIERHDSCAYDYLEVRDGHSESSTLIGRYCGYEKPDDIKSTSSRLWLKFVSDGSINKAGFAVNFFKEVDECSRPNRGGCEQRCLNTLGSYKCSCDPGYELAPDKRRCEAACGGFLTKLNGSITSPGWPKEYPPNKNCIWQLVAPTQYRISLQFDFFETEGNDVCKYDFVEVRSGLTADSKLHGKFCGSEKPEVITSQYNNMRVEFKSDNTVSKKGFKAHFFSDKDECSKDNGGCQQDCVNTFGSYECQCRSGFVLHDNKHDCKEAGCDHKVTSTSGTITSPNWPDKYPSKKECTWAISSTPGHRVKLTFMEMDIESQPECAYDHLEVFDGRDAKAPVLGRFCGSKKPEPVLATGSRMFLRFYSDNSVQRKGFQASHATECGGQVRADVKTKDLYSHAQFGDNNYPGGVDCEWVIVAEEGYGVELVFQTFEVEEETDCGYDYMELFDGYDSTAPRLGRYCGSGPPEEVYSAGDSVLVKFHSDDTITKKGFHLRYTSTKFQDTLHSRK
Kind of assay: Inhibitory activity against Procollagen C-Proteinase (PCP).

The target in assay [2] is T1, Bone morphogenetic protein 1. Nature of the assay: Inhibitory activity against procollagen C-proteinase (PCP).

Each structure is given as a SMILES string.

This is an account of results in ChEMBL document CHEMBL1135293, “Amino acid derived sulfonamide hydroxamates as inhibitors of procollagen C-proteinase. Part 2: Solid-phase optimization of side chains” (Bioorg Med Chem Lett, 2002).

Take `COc1ccc(S(=O)(=O)N(Cc2ccc3c(c2)OCO3)[C@@H](C(=O)NO)C(=O)C(N)CNC(=O)OCc2ccccc2Br)cc1` (stereo partly specified): in assay [1], the IC50 (commonly the concentration that inhibits the measured activity by half) was found to be 18 nM. Still for that read-out and setting: the result for `COc1ccc(S(=O)(=O)N(Cc2ccc3c(c2)OCO3)[C@H](Cc2cccs2)C(=O)NO)cc1` (stereo in doubt; 2) reads 0.2 nM; that for `COc1ccc(S(=O)(=O)N(Cc2ccc(OC)c(C)c2C)[C@H](C)C(=O)NO)cc1`, 220 nM; that for `COc1ccc(S(=O)(=O)N(Cc2ccc3c(c2)OCO3)[C@H](Cc2cccs2)C(=O)NO)cc1` (stereo in doubt; 41), 0.2 nM. The molecule `COc1ccc(S(=O)(=O)N(Cc2ccc(OC)c(C)c2C)[C@H](C)C(=O)O)cc1` showed an IC50 in assay [2] of 200 nM. As to `C=Cc1ccc(CN([C@H](Cc2cccs2)C(=O)NO)S(=O)(=O)c2ccc(OC)cc2)cc1`, half-maximal inhibition in assay [2] (IC50) required 190 nM. Take `COc1ccc(S(=O)(=O)N(Cc2ccc3c(c2)OCO3)[C@H](Cc2ccc([N+](=O)[O-])cc2)C(=O)NO)cc1`: the IC50 in assay [1] was 32 nM.

`COc1ccc(S(=O)(=O)N(Cc2ccc3c(c2)OCO3)[C@H](Cc2cncn2C(c2ccccc2)(c2ccccc2)c2ccccc2)C(=O)NO)cc1` came in with an IC50 in assay [1] of 36 nM.

`COC(=O)c1ccc(CN([C@H](Cc2cccs2)C(=O)O)S(=O)(=O)c2ccc(OC)cc2)cc1` displayed an IC50 in assay [2] of 210 nM. `C=CCOc1ccc2ccc(CN([C@H](C)C(=O)NO)S(=O)(=O)c3ccc(OC)cc3)cc2c1` registered an IC50 in assay [1] of 130 nM. Still for that read-out and setting: the result for `COc1ccc(S(=O)(=O)N(Cc2ccc(Cl)c([N+](=O)[O-])c2)[C@H](C)C(=O)NO)cc1` reads 30 nM. The same measure, in the same setting: the result for `COc1ccc(S(=O)(=O)N(Cc2ccc3c(c2)OCO3)[C@@H](C(=O)NO)C(=O)C(N)CNC(=O)OCc2ccccc2Cl)cc1` (stereo partly specified) reads 4.6 nM. In assay [2], `COc1ccc(S(=O)(=O)N(Cc2cccc(Br)c2)[C@H](Cc2cccs2)C(=O)NO)cc1` displayed an IC50 of 260 nM. In turn, `COc1ccc(S(=O)(=O)N(Cc2ccc(C)c([N+](=O)[O-])c2)[C@H](Cc2cccs2)C(=O)NO)cc1` registered an IC50 in assay [1] of 60 nM.

Turning to `COc1ccc(S(=O)(=O)N(Cc2cc(F)cc(F)c2)[C@H](C)C(=O)NO)cc1`, inhibition in assay [1] was half-maximal at 140 nM (IC50). On the same count and under the same terms, the result for `COc1ccc(S(=O)(=O)N(Cc2ccc3c(c2)OCO3)[C@@H](C(=O)NO)C(=O)C(N)CNC(=O)OCc2ccccc2)cc1` (stereo partly specified) reads 14 nM. `COc1ccc(S(=O)(=O)N(CCn2cccc2)[C@H](Cc2cccs2)C(=O)NO)cc1`: in assay [2], the IC50 worked out at 610 nM.

In assay [1], `C=CCOC(=O)NCC(N)C(=O)[C@H](C(=O)NO)N(Cc1ccc2c(c1)OCO2)S(=O)(=O)c1ccc(OC)cc1` (stereo partly specified) showed an IC50 of 23 nM. The same measure, in the same setting: the result for `COc1ccc(S(=O)(=O)N(Cc2cccc(Br)c2)[C@H](C)C(=O)NO)cc1` reads 93 nM; that for `COc1ccc(S(=O)(=O)N(Cc2cnc(Cl)s2)[C@H](C)C(=O)NO)cc1`, 180 nM. Turning to `COc1ccc(CSC[C@H](C(=O)O)N(Cc2ccc3c(c2)OCO3)S(=O)(=O)c2ccc(OC)cc2)cc1`, in assay [2], half-maximal inhibition (IC50) required 250 nM. Take `C#CC[C@H](C(=O)O)N(Cc1ccc2c(c1)OCO2)S(=O)(=O)c1ccc(OC)cc1`: inhibition in assay [2] was half-maximal at 10 nM (IC50).

In turn, `COc1ccc(S(=O)(=O)N(Cc2ccc3cc(C)ccc3c2)[C@H](C)C(=O)NO)cc1` registered an IC50 in assay [1] of 220 nM. `COc1ccc(S(=O)(=O)N(Cc2ccc3c(c2)OCO3)[C@H](COCc2ccccc2)C(=O)O)cc1` registered an IC50 in assay [2] of 380 nM.

Consider `COc1ccc(S(=O)(=O)N(Cc2ccc(F)c(F)c2)[C@H](C)C(=O)NO)cc1`, for which the IC50 in assay [1] amounted to 76 nM. The molecule `COc1ccc(S(=O)(=O)N(Cc2ccc(Br)cc2F)[C@H](C)C(=O)O)cc1` gave an IC50 in assay [2] of 490 nM.

`COc1ccc(S(=O)(=O)N(Cc2ccccc2C(F)(F)F)[C@H](C)C(=O)NO)cc1` displayed an IC50 in assay [1] of 6 nM. As for `COc1ccc(S(=O)(=O)N(Cc2ccc3c(c2)OCO3)[C@H](Cc2ccc(Br)s2)C(=O)O)cc1`, in assay [2], the IC50 came out at 670 nM. Regarding `COc1ccc(S(=O)(=O)N(Cc2ccc(Br)cc2)[C@H](C)C(=O)NO)cc1`, half-maximal inhibition in assay [1] (IC50) was put at 37 nM.

As for `COc1ccc(S(=O)(=O)N(Cc2ccc(Cl)c(Cl)c2)[C@H](Cc2cccs2)C(=O)NO)cc1`, in assay [2], the IC50 stood at 440 nM. Molecule `COc1ccc(S(=O)(=O)N(Cc2cccc(F)c2F)[C@H](Cc2cccs2)C(=O)NO)cc1` registered an IC50 in assay [2] of 100 nM. In turn, `COc1ccc(S(=O)(=O)N(Cc2ccc3c(c2)OCO3)[C@H](COC(C)(C)C)C(=O)NO)cc1` displayed an IC50 in assay [1] of 23 nM. `COc1ccc(S(=O)(=O)N(Cc2ccc3c(c2)OCO3)[C@H](Cc2cccs2)C(=O)O)cc1` registered an IC50 in assay [2] of 24 nM. `COc1ccc(S(=O)(=O)N(Cc2cc(C)on2)[C@H](Cc2cccs2)C(=O)O)cc1` had a half-inhibitory concentration (IC50) in assay [2] of 120 nM. Still for that read-out and setting: the result for `COc1ccc(S(=O)(=O)N(Cc2ccc3c(c2)OCO3)[C@H](CCC(=O)OC2CCCCC2)C(=O)O)cc1` reads 470 nM. As to `COc1ccc(S(=O)(=O)N(Cc2ccc(SC)cc2)[C@H](C)C(=O)NO)cc1`, the IC50 in assay [1] is 80 nM. As to `COc1ccc(S(=O)(=O)N(Cc2cccc(C)c2F)[C@H](Cc2cccs2)C(=O)NO)cc1`, the midpoint of inhibition in assay [2], the IC50, lay at 150 nM. Same read-out and setting: the result for `COc1ccc(S(=O)(=O)N(Cc2ccc(C)cc2)[C@H](Cc2cccs2)C(=O)NO)cc1` reads 110 nM. `COc1ccc(S(=O)(=O)N(Cc2cccc3ccccc23)[C@H](C)C(=O)NO)cc1` came in with an IC50 in assay [1] of 90 nM. The same measure, in the same setting: the result for `COc1ccc(S(=O)(=O)N(Cc2ccc3c(c2)OCO3)[C@H](CCCCNC(=O)OCc2ccccc2)C(=O)NO)cc1` reads 16 nM. `COc1ccc(S(=O)(=O)N(Cc2cccc(I)c2)[C@H](C)C(=O)O)cc1` had an IC50 in assay [2] of 280 nM. As for `COc1ccc(S(=O)(=O)N(CCn2cccc2)[C@H](C)C(=O)NO)cc1`, the IC50 in assay [1] was found to be 170 nM.

`COc1ccc(C[C@H](C(=O)NO)N(Cc2ccc3c(c2)OCO3)S(=O)(=O)c2ccc(OC)cc2)cc1`: it took 40 nM to reach half-maximal inhibition in assay [1] (IC50). In assay [2], `COc1ccc(S(=O)(=O)N(Cc2ccc3c(c2)OCO3)[C@@H](C(=O)O)C2CCN(C(=O)OC(C)(C)C)CC2)cc1` yielded a half-maximal inhibitory concentration (IC50) of 26 nM. In assay [2], `COc1ccc(S(=O)(=O)N(Cc2ccc(-c3cnns3)cc2)[C@H](Cc2cccs2)C(=O)NO)cc1` gave an IC50 of 440 nM. The molecule `COc1ccc(S(=O)(=O)N(Cc2ccc(F)c(F)c2)[C@H](Cc2cccs2)C(=O)NO)cc1` displayed an IC50 in assay [2] of 80 nM.

Molecule `COc1ccc(S(=O)(=O)N(Cc2ccc(Cl)c(Cl)c2)[C@H](C)C(=O)NO)cc1` displayed an IC50 in assay [1] of 120 nM.

In assay [1], `COc1ccc(S(=O)(=O)N(Cc2cc(C)on2)[C@H](C)C(=O)NO)cc1` came in with an IC50 of 230 nM. The same measure, in the same setting: the result for `COc1ccc(S(=O)(=O)N(Cc2sccc2Oc2ccccc2)[C@H](C)C(=O)NO)cc1` reads 40 nM.

Molecule `COc1ccc(S(=O)(=O)N(Cc2sc3scc(C)c3c2C)[C@H](C)C(=O)O)cc1` gave an IC50 in assay [2] of 50 nM. With `CCCCN(C)C(=N)NCCCC[C@H](C(=O)O)N(Cc1ccc2c(c1)OCO2)S(=O)(=O)c1ccc(OC)cc1`, the IC50 in assay [2] is 200 nM.

On to `COc1ccc(S(=O)(=O)N(Cc2ccc3c(c2)OCO3)[C@H](CSc2ccc(C)cc2)C(=O)NO)cc1`, for which the midpoint of inhibition in assay [1], the IC50, lay at 45 nM. The same measure, in the same setting: the result for `COc1ccc(S(=O)(=O)N(Cc2ccc(Br)cc2)[C@H](Cc2cccs2)C(=O)NO)cc1` reads 70 nM; that for `COc1ccc(S(=O)(=O)N(Cc2sc3scc(C)c3c2C)[C@H](C)C(=O)NO)cc1`, 60 nM.

`COc1ccc(S(=O)(=O)N(Cc2ccc3c(c2)OCO3)[C@H](Cc2ccco2)C(=O)O)cc1` yielded an IC50 in assay [2] of 470 nM. In assay [2], `COc1ccc(S(=O)(=O)N(Cc2cc(F)c(F)cc2F)[C@H](Cc2cccs2)C(=O)NO)cc1` yielded a half-inhibitory concentration (IC50) of 180 nM. In assay [1], `COc1ccc(S(=O)(=O)N(Cc2cc(C(F)(F)F)cc(C(F)(F)F)c2)[C@H](C)C(=O)NO)cc1` registered an IC50 of 220 nM. Regarding `COc1ccc(S(=O)(=O)N(Cc2ccc3c(c2)OCO3)[C@H](Cc2ccncc2)C(=O)O)cc1`, it took 592 nM to reach half-maximal inhibition in assay [2] (IC50). Take `COc1ccc(S(=O)(=O)N(Cc2ccc3c(c2)OCO3)[C@H](CCCNC(=O)OC(C)(C)C)C(=O)NO)cc1`: inhibition in assay [1] was half-maximal at 52 nM (IC50). In assay [1], `COc1ccc(CSC[C@H](C(=O)NO)N(Cc2ccc3c(c2)OCO3)S(=O)(=O)c2ccc(OC)cc2)cc1` returned an IC50 of 32 nM. The same measure, in the same setting: the result for `COc1ccc(S(=O)(=O)N(Cc2cccc(C)c2[N+](=O)[O-])[C@H](C)C(=O)NO)cc1` reads 120 nM; that for `COc1ccc(S(=O)(=O)N(Cc2ccc3c(c2)OCO3)[C@@H](C(=O)NO)C(=O)C(N)CNC(=O)OCC2c3ccccc3-c3ccccc32)cc1` (stereo partly specified), 0.024 nM; that for `COc1ccc(S(=O)(=O)N(Cc2ccc(C(C)C)cc2)[C@H](C)C(=O)NO)cc1`, 230 nM. Take `COc1ccc(S(=O)(=O)N(Cc2ccc3c(c2)OCO3)[C@H](Cc2cn(C)cn2)C(=O)NO)cc1`: the half-inhibitory concentration (IC50) in assay [1] was 50 nM. Still for that read-out and setting: the result for `COc1ccc(S(=O)(=O)N(Cc2ccc3c(c2)OCO3)[C@@H](C(=O)NO)C(C)C)cc1` reads 53 nM; that for `COc1ccc(S(=O)(=O)N(Cc2ccc3c(c2)OCO3)[C@H](Cc2cncn2Cc2ccccc2)C(=O)NO)cc1`, 27 nM.
